Experimental findings from publication PMC11302339, “A series of pyrimidine-based antifungals with anti-mold activity disrupt ER function in Aspergillus fumigatus” (Microbiology Spectrum, 2024) are described below.

Experiment [1] relates to A. fumigatus collagenase secretion. Briefly: Detection of secreted collagenase by azocoll. In kind it is cell-based, Aspergillus fumigatus. The settings on record: treated with 1/2 MIC of each compound. As for the experimental part:
1 × 10^6 CEA10 conidia/mL were cultured in 25 mL liquid GMM for 18 hours, then mycelia were washed with sterile ddH2O and transferred to 10% FBS-MM and treated with DMSO or the indicated concentration of drugs. Cultures were incubated at 37°C, 250 rpm, for an additional 24 hours, then the supernatant and biomass were collected. One milliliter of supernatant was spun at top speed for 5 min. Azocoll of <50 mesh (Sigma, Cat # 194932) was washed in buffer (50 mM Tris, pH 7.5, 1 mM NaCl, and 0.01% sodium azide) then resuspended to 5 mg/mL. Fifteen microliters of culture supernatant was added to the 2 mL azocoll solution and incubated at 37°C with shaking at 300 rpm for 3 hours in the dark. Reactions were spun at maximum speed for 3 min; 200 µL of supernatant was then transferred to a 96-well plate; and Abs 520 was measured. Biomass was lyophilized, and absorbance readings were normalized to milligram tissue. Data represent the mean and SEM of biological triplicates with technical duplicates except for compounds 5 and 7, which are biological duplicates due to the limited availability of the drug and the required culture size for this assay.

A further experiment has as its system A. fumigatus. Briefly: MIC testing (CLSI broth dilution). The class given is cell-based. Conditions: Aspergillus fumigatus, 48 h, strain CEA10; CLSI conditions, 48 h; read-out: MIC. On the procedure:
(§1) MICs were determined using Clinical and Laboratory Standards Institute guidelines ([48], [49]). All yeasts were cultured overnight in 3 mL YPD at 30°C, then washed twice in sterile phosphate-buffered saline (PBS). Twofold serial dilutions of each drug were prepared in RMPI + MOPS, then 1 × 10^3 cells were added per well. For mold species, wells were inoculated with 1.25 × 10^3 conidia per well. Plates were incubated at 37°C for 24 (Candida spp. and S. cerevisiae), 48 (Aspergillus spp., M. circinelloides, S. apiospermum, and L. prolificans), or 72 (C. neoformans and F. oxysporum) hours. S. cerevisiae BY4743 MICs were tested in YPD due to nutritional requirements of this strain. Each assay was performed in technical duplicate in at least two independent experiments performed on different days.
A general note: In broth dilution the organism is exposed to a series of concentrations in liquid medium.

In another experiment the test system is C. neoformans. Briefly: MIC testing (CLSI broth dilution). The class given is cell-based. The settings on record: Cryptococcus neoformans, 72 h, strain H99; CLSI conditions. As for the experimental part:
as §1

A further experiment has as its system A. fumigatus biofilms. Briefly: A. fumigatus hyphal (biofilm) activity, resazurin. The class given is cell-based, Aspergillus fumigatus. Conditions: conidia germinated 14 hours, escalating doses 24 hours. As for the experimental part:
To determine antifungal activity against A. fumigatus hyphae, a 96-well plate was inoculated with 1 × 10^3 conidia per well in 100 µL RPMI + MOPS with the edge wells filled with 200 µL sterile water to minimize edge effects. Plates were incubated at 37°C for 14 hours. A twofold dilution series of 1 or 7 was prepared in RPMI + MOPS at 2× concentration with 0.002% resazurin, then 100 µL of the drug was added to wells, and plates were incubated for an additional 24 hours. Fluorescence was measured with an excitation wavelength of 570 nm and an emission wavelength of 615 nm. Data are representative of two independent experiments performed in biological triplicate.
In general terms: Alamar Blue is a resazurin reagent that responds to reducing activity.

The test system of experiment [2] is A. fumigatus UPR-responsive genes. Briefly: A. fumigatus UPR gene expression (qRT-PCR). The class given is cell-based, Aspergillus fumigatus. Conditions: single agent (16 µg/mL 1, or 1 mM DTT for 1 hour); normalized to DMSO. As for the experimental part: We cultured 5 × 10^6 CEA10 conidia/mL in liquid GMM for 18 hours at 37°C with shaking at 250 rpm. Cultures were treated with either DMSO or 16 µg/mL 1 for 2 hours at 37°C, 250 rpm. Then 1 mM DTT or water was added, and cultures were incubated for an additional hour. Mycelia were collected with vacuum filtration and immediately frozen with liquid nitrogen. Tissue was lyophilized then ground with glass beads with a bead beater. RNA was extracted in 1 mL of TRIazole solution (Life Technologies, Cat # 15596026), then RNA was purified with two rounds of chloroform extraction. Five micrograms of RNA was treated with TURBO DNA-free kit (Invitrogen, Cat # AM1907) according to the manufacturer’s protocol. Five hundred nanograms of DNAse-treated RNA was used for cDNA synthesis with iScript cDNA synthesis kit (BioRad, Cat # 1708891), then cDNA was diluted 1:5 with ddH2O. Quantitative real time PCR analysis was performed in 20 µL reactions using 2 µL of dilute cDNA per reaction with iQ SYBR Green Supermix (BioRad). Samples were run on a BioRad CFX Connect using a three-step amplification with 54°C annealing temperature and melt curve analysis. Gene expression is normalized to tubA and tef1 expression. Gene expression was performed in biological triplicate. Primers to detect HacA splicing and targets were designed as previously described ([51]).

≈ marks a conversion by molar mass, not a printed value. Bounds are passed on as bounds.

Take `OC1CC(c2cc(N3CCC(Cc4ccc(F)cc4)CC3)ncn2)C1` (centres unmarked) [compound 3]: the collagenase secretion entry in experiment [1] was “inhibition of collagenase secretion was similar”. The MIC (commonly the lowest concentration found to suppress growth) in the experiment with A. fumigatus was found to be 64 µg/mL (≈ 187 µM); with C. neoformans, 4 µg/mL (≈ 11.7 µM).
For the compound `COC1CCN(c2cc(C3CC(O)C3)ncn2)CC1` (centres unmarked) [compound 6], the MIC with A. fumigatus and against C. neoformans was > 128 µg/mL throughout.
Consider `OC1CC(c2cc(NCC3CCN(CCc4ccccc4)CC3)ncn2)C1` (centres unmarked) [compound 7], for which, in the experiment with A. fumigatus biofilms, the “inhibition of hyphal growth” value is reported as “did not show inhibitory activity”. The collagenase secretion entry in experiment [1] was “modest but insignificant effect”. Further, the minimal inhibitory concentration (MIC) with A. fumigatus and against C. neoformans was > 128 µg/mL in each case.
Take `OC1CC(c2cc(N3CCC(CCN4CCCC4)CC3)ncn2)C1` (centres unmarked) [compound 4]: the MIC in the experiment with A. fumigatus was > 128 µg/mL; in the experiment on C. neoformans, 128 µg/mL (≈ 387 µM).
In the case of `O[C@@H](CS)[C@@H](O)CS` (racemic) [DTT, 1,4-dithiothreitol, reference compound], in experiment [2], the “increase in BipA expression” value amounted to 5 fold, the “increase in PdiA expression” value turned out to be 2 fold and the “increase of spliced HacA (HacA^A)” value is on record as ~ 1.5 fold.
